Data on four compounds can be found in article PMC9499987 (Antiviral Research, 2022).

The test system of experiment [1] is HCoV-OC43. The experiment in a line: Anti-coronavirus activity assay. The experiment is classed as cell-based. Conditions: HCT-8 cells, MOI 0.1, serial dilutions up to 50 μM.
Experiment [2] concerns the target T1, SARS-CoV-2 3CL^pro (Severe acute respiratory syndrome coronavirus 2, UniProt P0DTD1). Description: Microscale thermophoresis. The experiment is classed as binding. For orientation: MST reads how a fluorescent partner responds to local heating, with and without ligand.
The target in experiment [3] is T1, SARS-CoV-2 3CL^pro. The experiment in a line: cell-based. Conditions: EC50 against SARS-CoV-2 3CLpro (BRET ratio). (In general: BRET reads energy transfer from a luciferase to a nearby fluorophore.)

On to `C=C[C@@H]1C[C@]1(NC(=O)[C@@H]1C[C@@H]2CN1C(=O)[C@H](C(C)(C)C)NC(=O)O[C@@H]1C[C@H]1CCCCCc1nc3ccc(OC)cc3nc1O2)C(=O)NS(=O)(=O)C1CC1.O` [grazoprevir, Grazoprevir], for which, in experiment [1], the “inhibitory effect on the replication of HCoV-OC43” value is reported as “did not significantly inhibit”. By Kd is commonly meant the constant that tells how readily two partners part at equilibrium. Turning to `C=C(C)[C@@H]1CC[C@]2(C(=O)O)CC[C@]3(C)[C@H](CC[C@@H]4[C@@]5(C)CC[C@H](OC(=O)CC(C)(C)C(=O)O)C(C)(C)[C@@H]5CC[C@]43C)[C@@H]12` [bevirimat, Bevirimat], the “inhibitory effect on the replication of HCoV-OC43” value in experiment [1] was “did not significantly inhibit”. The Kd was found to be 1.05e-05 M in experiment [2] (Kd(M), MST, target 100 nM, ligand 0.0153 μM–500 μM, MST power 40%) and 1.05e-05 M in experiment [2] (Kd, MST, labeled 3CLpro 100 nM, 40% MST power). With `Cc1c(O)cccc1C(=O)N[C@@H](CSc1ccccc1)[C@H](O)CN1C[C@H]2CCCC[C@H]2C[C@H]1C(=O)NC(C)(C)C` [nelfinavir, Nelfinavir], the equilibrium dissociation constant (Kd) in experiment [2] (Kd) and in experiment [2] (Kd(M)) was 9.16e-05 M in each case. As a reminder, the EC50 is the concentration at which the effect is half-maximal. `CC(C)(C)NC(=O)[C@@H]1C[C@@H]2CCCC[C@@H]2CN1C[C@@H](O)[C@H](Cc1ccccc1)NC(=O)[C@H](CC(N)=O)NC(=O)c1ccc2ccccc2n1` [saquinavir]: in experiment [3], the EC50 came to 40 µM.
